Legend:
rat B2 receptor = target: T1, rat B2 receptor (Rattus norvegicus, UniProt P25023); assay: Ca^2+ mobilization assay, HEK293T cells; format: cell-based; details: BK at EC80 4.32 nM
T1 construct: host or cells: HEK293T cells
T1 sequence (P25023 1-396): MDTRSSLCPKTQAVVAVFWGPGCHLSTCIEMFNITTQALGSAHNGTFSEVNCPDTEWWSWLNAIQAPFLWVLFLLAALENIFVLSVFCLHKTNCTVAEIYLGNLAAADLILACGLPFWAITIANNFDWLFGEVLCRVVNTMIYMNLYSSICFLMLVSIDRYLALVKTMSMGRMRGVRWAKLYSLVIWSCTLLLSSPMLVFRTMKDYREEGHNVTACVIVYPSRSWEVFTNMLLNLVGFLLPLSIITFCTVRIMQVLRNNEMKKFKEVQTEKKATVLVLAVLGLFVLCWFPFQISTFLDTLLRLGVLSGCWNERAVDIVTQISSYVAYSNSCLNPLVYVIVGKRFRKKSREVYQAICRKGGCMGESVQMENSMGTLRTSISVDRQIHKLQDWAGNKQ

[1] = target: T2, Norepinephrine transporter (Homo sapiens, UniProt P23975); assay: radioligand binding (Table S2); details: [3H] Nisoxetine, Human recombinant CHO cells
T2 construct: host or cells: CHO cells

[2] = target: T3, Benzodiazepine BZD (peripheral) (Rattus norvegicus, UniProt P16257); assay: radioligand binding (Table S2)
T3 construct: tissue Eurofins; host or cells: rat heart

Opioid δ (DOP) = target: T4, Opioid δ (DOP) (Homo sapiens, UniProt P41143); assay: radioligand binding (Table S2); details: [3H] DADLE, Human recombinant CHO cells
T4 construct: host or cells: CHO cells

Apelin APJ = Apelin APJ (Homo sapiens, UniProt P35414); assay: radioligand binding (Table S2); details: [125I] [Glp65, Nle75, Tyr77]-apelin-13, Human recombinant CHO cells
[3] = system: Sodium Na+ channel (site 2); format: binding; details: [3H] Batrachotoxinin, Rat cerebral cortex
kinin B1 receptor = target: T5, kinin B1 receptor (Homo sapiens, UniProt P46663); assay: umbilical vein, Sar-[D-Phe^8]des-Arg^9-BK-induced contraction; details: 1 μM
T5 construct: during the 3-hour incubation period to upregulate the expression of B1; from tissue; host or cells: human umbilical vein rings pre-incubated with interleukin-1β and tumor necrosis factor-α

Adenosine A1 = Adenosine A1 (Homo sapiens, UniProt P30542); assay: radioligand binding (Table S2); details: [3H] DPCPX, Human recombinant CHO cells
Adrenergic α2A = Adrenergic α2A (Homo sapiens, UniProt P08913); assay: radioligand binding (Table S2); details: read-out: % Inhibition @ 10 µM
Bradykinin B1 = target: T6, Bradykinin B1 (Homo sapiens, UniProt P46663); assay: radioligand binding (Table S2)
T6 construct: host or cells: CHO cells

Galanin GAL1 = Galanin GAL1 (Homo sapiens, UniProt P47211); assay: radioligand binding (Table S2); details: [125I] Galanin, Human recombinant HEK-293 cells
Muscarinic M4 = Muscarinic M4 (Homo sapiens, UniProt P08173); assay: radioligand binding (Table S2); details: read-out: % Inhibition @ 10 µM
Monoamino-oxidase MAO-A = target: T7, Monoamino-oxidase MAO-A (Rattus norvegicus, UniProt P21396); assay: radioligand binding (Table S2); details: [3H] Ro 41-1049, Rat cerebral cortex
T7 construct: Rat cerebral cortex; from tissue; host or cells: rat cerebral cortex

Adenosine A3 = target: T8, Adenosine A3 (Homo sapiens, UniProt P0DMS8); assay: functional assay, cAMP HTRF, CHO cells (Table S2); format: cell-based; set-up: host or cells: CHO cells
T8 sequence (P0DMS8 1-318): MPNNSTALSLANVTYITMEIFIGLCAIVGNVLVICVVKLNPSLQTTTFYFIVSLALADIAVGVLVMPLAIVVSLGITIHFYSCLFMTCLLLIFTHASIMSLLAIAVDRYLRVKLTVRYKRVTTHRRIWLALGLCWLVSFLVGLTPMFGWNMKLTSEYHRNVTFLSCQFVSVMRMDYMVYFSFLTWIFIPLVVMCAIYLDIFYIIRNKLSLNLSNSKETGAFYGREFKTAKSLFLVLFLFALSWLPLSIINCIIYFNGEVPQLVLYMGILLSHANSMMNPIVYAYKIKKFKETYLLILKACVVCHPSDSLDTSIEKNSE

[4] = target: T9, Growth hormone secretagogue (GHS, ghrelin) (Homo sapiens, UniProt Q92847); assay: radioligand binding (Table S2); details: [125I] Ghrelin (human), Human recombinant CHO-K1 cells
T9 construct: host or cells: CHO-K1 cells

Urotensin UT = target: T10, Urotensin UT (Homo sapiens, UniProt Q9UKP6); assay: radioligand binding (Table S2); details: [125I] Urotensin-II, Human recombinant CHO cells
T10 construct: host or cells: CHO cells

[5] = target: Nicotinic acetylcholine α1, bungarotoxin (Homo sapiens, UniProt P02708+P07510+Q07001); assay: biochemical; format: binding; details: read-out: % Inhibition @ 10 µM
Neuropeptide Y1 = target: T11, Neuropeptide Y1 (Homo sapiens, UniProt P25929); assay: radioligand binding (Table S2); details: [125I] Peptide YY, SK-N-MC cells (endogenous)
T11 construct: (endogenous); host or cells: SK-N-MC cells

Purinergic receptor P2X = assay: radioligand binding (Table S2); details: [3H] α,β-MeATP, Rat urinary bladder
[6] = target: T12, cynomolgus monkey B2 receptor (Macaca fascicularis, UniProt A0A7N9CWN6); assay: cell-based
T12 sequence (A0A7N9CWN6 1-391): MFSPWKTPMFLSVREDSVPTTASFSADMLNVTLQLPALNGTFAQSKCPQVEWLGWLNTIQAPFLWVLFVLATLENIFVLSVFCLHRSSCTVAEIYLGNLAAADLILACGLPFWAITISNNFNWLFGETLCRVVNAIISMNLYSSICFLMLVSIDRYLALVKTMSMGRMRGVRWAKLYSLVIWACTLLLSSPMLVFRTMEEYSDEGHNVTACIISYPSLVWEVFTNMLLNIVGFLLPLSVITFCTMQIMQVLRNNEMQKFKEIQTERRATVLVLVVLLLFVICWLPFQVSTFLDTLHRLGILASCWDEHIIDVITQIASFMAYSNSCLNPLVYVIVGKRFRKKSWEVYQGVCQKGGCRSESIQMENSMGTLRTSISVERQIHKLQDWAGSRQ

Chemokine CCR2B = target: T13, Chemokine CCR2B (Homo sapiens, UniProt P41597); assay: radioligand binding (Table S2); details: [125I] MCP-1, Human recombinant CHO-K1 cells
T13 construct: host or cells: CHO-K1 cells
T13 sequence (P41597 1-360 isoform P41597-2): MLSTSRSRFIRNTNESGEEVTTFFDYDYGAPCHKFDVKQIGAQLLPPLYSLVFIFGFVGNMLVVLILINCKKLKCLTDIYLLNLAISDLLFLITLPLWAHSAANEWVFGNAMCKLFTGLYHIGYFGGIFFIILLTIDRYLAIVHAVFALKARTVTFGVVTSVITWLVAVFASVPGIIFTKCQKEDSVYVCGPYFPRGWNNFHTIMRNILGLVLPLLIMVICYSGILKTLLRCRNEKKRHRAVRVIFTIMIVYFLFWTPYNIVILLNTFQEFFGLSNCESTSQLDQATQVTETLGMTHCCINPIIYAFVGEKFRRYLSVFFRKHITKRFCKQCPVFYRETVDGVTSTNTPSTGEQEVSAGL

Adenosine A1, sequence (P30542 whole entry): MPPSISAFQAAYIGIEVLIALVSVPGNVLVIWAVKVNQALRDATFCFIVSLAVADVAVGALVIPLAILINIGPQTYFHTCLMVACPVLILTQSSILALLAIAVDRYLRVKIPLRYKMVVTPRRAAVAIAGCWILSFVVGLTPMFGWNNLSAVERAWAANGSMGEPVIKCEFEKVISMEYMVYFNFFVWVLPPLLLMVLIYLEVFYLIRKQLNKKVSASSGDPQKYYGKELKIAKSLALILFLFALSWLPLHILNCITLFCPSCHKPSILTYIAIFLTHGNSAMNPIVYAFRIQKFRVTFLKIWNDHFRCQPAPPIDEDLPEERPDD
T9 sequence (Q92847 whole entry): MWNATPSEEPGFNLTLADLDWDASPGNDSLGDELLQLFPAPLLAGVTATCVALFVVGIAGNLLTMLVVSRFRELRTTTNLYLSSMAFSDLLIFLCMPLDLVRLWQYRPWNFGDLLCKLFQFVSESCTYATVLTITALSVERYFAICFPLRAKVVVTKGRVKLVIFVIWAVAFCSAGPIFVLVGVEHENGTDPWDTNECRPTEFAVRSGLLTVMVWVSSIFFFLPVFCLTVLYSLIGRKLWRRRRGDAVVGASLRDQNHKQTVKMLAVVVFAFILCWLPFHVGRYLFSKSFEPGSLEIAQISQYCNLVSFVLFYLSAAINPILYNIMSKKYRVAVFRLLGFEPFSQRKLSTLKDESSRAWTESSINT
Adrenergic α2A, sequence (P08913 whole entry): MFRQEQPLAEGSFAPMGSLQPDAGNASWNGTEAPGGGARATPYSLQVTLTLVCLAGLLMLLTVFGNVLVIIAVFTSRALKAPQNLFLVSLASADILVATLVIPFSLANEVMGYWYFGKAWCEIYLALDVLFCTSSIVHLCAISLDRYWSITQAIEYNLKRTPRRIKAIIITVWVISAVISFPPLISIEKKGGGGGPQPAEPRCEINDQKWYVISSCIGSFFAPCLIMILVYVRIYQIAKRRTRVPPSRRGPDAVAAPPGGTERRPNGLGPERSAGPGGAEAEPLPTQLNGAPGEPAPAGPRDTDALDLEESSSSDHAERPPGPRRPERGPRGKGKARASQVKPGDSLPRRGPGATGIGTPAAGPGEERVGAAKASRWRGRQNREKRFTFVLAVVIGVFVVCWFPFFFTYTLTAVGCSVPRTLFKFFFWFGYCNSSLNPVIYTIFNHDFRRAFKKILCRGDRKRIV
Nicotinic acetylcholine α1, bungarotoxin, sequence (P02708 21-457): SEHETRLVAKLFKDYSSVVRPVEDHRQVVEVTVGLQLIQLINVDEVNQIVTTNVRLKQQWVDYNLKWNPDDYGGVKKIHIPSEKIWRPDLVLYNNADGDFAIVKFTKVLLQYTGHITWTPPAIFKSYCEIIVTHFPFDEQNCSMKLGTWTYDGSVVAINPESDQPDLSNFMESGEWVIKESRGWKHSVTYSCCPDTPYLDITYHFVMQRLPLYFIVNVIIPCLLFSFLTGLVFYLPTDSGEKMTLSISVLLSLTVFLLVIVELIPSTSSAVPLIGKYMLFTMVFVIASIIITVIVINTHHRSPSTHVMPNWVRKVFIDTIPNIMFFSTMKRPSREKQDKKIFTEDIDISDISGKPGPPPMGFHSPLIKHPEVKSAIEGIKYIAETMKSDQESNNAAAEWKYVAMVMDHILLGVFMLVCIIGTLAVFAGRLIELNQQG
Nicotinic acetylcholine α1, bungarotoxin, sequence (P07510 23-517): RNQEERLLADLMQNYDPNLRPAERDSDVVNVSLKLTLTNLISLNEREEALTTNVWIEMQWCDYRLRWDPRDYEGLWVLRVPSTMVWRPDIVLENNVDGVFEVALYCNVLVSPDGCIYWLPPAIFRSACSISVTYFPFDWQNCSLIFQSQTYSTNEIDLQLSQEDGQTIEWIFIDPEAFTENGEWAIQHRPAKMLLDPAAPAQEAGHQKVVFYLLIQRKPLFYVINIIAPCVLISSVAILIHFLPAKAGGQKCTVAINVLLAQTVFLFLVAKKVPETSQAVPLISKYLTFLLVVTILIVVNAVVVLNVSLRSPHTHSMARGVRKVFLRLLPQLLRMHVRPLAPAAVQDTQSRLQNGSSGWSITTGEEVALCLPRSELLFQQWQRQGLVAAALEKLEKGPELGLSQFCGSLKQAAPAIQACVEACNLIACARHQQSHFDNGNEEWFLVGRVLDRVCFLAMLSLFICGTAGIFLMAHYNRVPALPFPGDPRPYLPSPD
Nicotinic acetylcholine α1, bungarotoxin, sequence (Q07001 22-517): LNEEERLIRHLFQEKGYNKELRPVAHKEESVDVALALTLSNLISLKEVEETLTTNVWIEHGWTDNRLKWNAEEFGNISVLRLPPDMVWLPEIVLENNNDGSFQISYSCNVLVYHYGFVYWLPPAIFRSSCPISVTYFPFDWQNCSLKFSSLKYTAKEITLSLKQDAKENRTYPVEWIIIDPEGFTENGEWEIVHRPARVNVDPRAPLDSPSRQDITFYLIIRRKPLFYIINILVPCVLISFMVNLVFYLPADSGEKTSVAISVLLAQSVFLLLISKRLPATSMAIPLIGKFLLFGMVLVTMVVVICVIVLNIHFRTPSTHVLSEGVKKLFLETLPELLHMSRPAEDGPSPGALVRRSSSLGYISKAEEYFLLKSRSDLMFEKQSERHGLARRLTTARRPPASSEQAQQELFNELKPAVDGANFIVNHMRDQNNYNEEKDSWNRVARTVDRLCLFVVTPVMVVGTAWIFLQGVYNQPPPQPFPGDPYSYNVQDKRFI
Nicotinic acetylcholine α1, bungarotoxin, sequence (P11230 24-501, further chain): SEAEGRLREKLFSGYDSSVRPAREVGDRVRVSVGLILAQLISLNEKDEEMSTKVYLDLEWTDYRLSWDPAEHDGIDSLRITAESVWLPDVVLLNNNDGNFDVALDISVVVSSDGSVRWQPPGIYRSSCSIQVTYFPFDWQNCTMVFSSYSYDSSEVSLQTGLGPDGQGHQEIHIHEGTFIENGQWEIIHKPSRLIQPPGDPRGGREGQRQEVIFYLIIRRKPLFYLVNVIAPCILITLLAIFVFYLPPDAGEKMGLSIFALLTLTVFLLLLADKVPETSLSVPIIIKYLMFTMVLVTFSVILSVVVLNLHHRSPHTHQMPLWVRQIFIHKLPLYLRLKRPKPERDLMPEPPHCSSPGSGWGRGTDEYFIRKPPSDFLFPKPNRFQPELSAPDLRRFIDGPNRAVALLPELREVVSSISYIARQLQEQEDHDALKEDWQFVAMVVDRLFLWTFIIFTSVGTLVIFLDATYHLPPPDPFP
Galanin GAL1, sequence (P47211 whole entry): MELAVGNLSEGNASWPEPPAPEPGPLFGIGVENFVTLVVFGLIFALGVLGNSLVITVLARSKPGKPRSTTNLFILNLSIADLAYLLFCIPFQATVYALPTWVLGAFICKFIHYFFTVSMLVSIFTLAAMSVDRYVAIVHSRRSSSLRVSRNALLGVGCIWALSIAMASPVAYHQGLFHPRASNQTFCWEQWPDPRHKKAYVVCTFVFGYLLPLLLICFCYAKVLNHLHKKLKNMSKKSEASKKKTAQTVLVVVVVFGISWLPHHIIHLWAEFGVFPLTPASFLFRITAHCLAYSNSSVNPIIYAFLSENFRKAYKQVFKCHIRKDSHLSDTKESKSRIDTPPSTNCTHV
Apelin APJ, sequence (P35414 whole entry): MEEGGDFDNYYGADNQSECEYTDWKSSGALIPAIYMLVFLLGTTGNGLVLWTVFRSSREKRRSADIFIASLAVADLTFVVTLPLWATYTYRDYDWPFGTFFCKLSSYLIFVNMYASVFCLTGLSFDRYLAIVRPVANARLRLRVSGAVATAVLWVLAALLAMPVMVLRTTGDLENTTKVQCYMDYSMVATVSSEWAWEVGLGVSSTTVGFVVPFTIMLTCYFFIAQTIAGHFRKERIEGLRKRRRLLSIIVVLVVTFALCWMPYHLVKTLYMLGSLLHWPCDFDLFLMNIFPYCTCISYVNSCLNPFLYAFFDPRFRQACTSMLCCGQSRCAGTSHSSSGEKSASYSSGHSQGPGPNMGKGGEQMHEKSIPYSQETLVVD
T4 sequence (P41143 whole entry): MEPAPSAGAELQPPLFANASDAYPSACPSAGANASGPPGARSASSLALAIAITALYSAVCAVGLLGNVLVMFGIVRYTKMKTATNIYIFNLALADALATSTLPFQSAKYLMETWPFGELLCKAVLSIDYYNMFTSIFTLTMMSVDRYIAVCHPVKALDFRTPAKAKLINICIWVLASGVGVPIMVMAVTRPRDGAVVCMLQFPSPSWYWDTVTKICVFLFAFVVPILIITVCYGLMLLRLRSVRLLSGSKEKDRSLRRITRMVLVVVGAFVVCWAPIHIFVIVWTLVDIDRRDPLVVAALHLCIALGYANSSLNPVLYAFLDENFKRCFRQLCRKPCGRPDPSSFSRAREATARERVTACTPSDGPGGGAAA
T11 sequence (P25929 whole entry): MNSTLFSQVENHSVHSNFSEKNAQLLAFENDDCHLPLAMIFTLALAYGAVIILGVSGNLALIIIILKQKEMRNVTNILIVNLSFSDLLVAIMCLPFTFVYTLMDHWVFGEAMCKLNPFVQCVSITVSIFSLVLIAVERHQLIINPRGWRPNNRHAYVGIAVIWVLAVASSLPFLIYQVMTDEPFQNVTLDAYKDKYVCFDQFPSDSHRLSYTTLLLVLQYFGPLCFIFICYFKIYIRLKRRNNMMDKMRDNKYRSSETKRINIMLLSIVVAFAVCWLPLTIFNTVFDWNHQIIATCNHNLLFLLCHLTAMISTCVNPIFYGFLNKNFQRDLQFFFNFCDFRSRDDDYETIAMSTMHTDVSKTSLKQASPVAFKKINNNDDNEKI

Cc1cc(-c2ncnn2C)c2cccc(OCc3c(Cl)cc(F)cc3[C@H](C)NC(=O)COC(F)F)c2n1 [Compound 3, (S)-N-(1-(3-chloro-5-fluoro-2-((2-methyl-4-(1-methyl-1H-1,2,4-triazol-5-yl)quinolin-8-yloxy)methyl)phenyl)ethyl)-2-(difluoromethoxy)acetamide]
IC50 (rat B2 receptor): 1030 nM
Kb (rat B2 receptor): 147 nM
inhibition at 10 µM [1]: 0.9%
inhibition at 10 µM [2]: 42.3%
inhibition at 10 µM (Opioid δ (DOP)): 10.6%
inhibition at 10 µM (Apelin APJ): -0.4%
% Inhibition @ 10 µM [3]: -3.4%
effect on contraction by B1 receptor agonist Sar-[D-Phe^8]des-Arg^9-BK (kinin B1 receptor): failed to antagonize
inhibition at 10 µM (Adenosine A1): 12.4%
inhibition at 10 µM (Adrenergic α2A): -1.7%
inhibition at 10 µM (Bradykinin B1): 0.5%
inhibition at 10 µM (Galanin GAL1): 22.4%
inhibition at 10 µM (Muscarinic M4): -1.3%
inhibition at 10 µM (Monoamino-oxidase MAO-A): -1.3%
inhibition at 10 µM (Adenosine A3; CHO, read-out: % inhibition of reference agonist response @ 10 µM (antagonist effect), IB-MECA (10 nM)): 8.5%
% of reference agonist response @ 10 µM (agonist effect) (Adenosine A3; reference IB-MECA (100 nM)): 10.5%
inhibition at 10 µM [4]: 6%
inhibition at 10 µM (Urotensin UT): 13.5%
inhibition at 10 µM [5]: -1%
inhibition at 10 µM (Neuropeptide Y1): -2.6%
% Inhibition @ 10 µM (Purinergic receptor P2X): 6.3%
IC50 [6]: 6.25 nM
Kb [6]: 1.36 nM
inhibition at 10 µM (Chemokine CCR2B): 1%

— PMC7316994, “In Vitro Pharmacological Profile of a New Small Molecule Bradykinin B2 Receptor Antagonist” (Frontiers in Pharmacology, 2020)
